Results on 16 compounds are retold here after BindingDB's records for doi:10.7270/Q23R0R8T (Burnham Center For Chemical Genomics, 2010).

In this assay the target is Nucleotide-binding oligomerization domain-containing protein 2 (Homo sapiens, UniProt Q9HC29). The assay can be described thus: NOD2 signaling inhibitors in MDP-stimulated cells, cell-based, uHTS, luminescence (AID 2001).
Chain of Nucleotide-binding oligomerization domain-containing protein 2 (Q9HC29 whole entry, the tested form may be a part): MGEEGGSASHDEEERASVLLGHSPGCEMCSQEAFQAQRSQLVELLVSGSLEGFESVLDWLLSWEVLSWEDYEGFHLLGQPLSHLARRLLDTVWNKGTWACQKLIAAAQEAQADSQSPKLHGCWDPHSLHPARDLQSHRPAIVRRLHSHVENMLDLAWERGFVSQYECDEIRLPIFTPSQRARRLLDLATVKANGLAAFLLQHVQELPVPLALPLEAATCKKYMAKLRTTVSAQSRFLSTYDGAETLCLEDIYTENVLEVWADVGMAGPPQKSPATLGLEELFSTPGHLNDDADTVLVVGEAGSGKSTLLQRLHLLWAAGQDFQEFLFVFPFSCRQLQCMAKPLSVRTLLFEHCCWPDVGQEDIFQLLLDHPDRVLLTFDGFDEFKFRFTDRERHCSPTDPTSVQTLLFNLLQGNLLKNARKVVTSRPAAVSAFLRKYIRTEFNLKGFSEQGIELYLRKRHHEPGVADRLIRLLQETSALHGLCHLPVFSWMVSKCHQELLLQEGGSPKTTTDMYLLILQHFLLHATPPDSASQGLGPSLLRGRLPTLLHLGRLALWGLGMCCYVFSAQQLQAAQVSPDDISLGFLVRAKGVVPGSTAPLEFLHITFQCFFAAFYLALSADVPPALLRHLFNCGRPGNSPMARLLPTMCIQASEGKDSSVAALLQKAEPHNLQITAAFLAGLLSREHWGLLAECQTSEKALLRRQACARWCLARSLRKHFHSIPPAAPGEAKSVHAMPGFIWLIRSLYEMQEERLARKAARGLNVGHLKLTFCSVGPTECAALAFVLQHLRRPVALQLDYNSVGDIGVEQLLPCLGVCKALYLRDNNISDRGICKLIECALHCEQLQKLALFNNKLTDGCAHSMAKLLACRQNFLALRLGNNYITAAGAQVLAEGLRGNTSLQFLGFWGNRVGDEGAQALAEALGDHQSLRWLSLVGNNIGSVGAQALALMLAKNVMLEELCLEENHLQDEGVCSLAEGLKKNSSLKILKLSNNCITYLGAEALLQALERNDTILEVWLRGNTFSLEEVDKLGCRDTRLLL
What is called IC50 is the concentration at which inhibition is half-maximal. A higher IC50 goes with weaker potency. `Cc1cc(CN=Nc2ncnc(N)c2[N+](=O)[O-])c(C)n1-c1ccccc1`: the IC50 came to 6.1 µM.
Compound `Cc1cc(SCC(=O)OCC(=O)C(C#N)c2nc3ccccc3[nH]2)c(C)cc1Br` (stereo unspecified) showed an IC50 of 5.41 µM.
As to `O=C1C(=O)N(c2nccs2)C(c2ccccc2)C1C(=O)c1ccc2c(c1)OCCO2` (stereo unspecified), the IC50 is 18.6 µM.
Regarding `CCCOC1=CC(=O)C(C=NNC(=S)Nc2ccccc2[N+](=O)[O-])C=C1` (stereo unspecified) [1-(2-nitrophenyl)-3-[[(E)-(6-oxo-4-propoxy-1-cyclohexa-2,4-dienylidene)methyl]amino]thiourea], the IC50 turned out to be 0.233 µM.
Under `C=CCN1C(=O)C(=NNC(=S)Nc2cccc(C)c2)c2ccccc21` [1-(3-methylphenyl)-3-[(Z)-(2-oxidanylidene-1-prop-2-enyl-indol-3-ylidene)amino]thiourea] stands 1.18 µM.
The result for `CCCCCCC1=Cc2c/c(=C3/NN=C(c4ccccc4OC)O3)c(=O)oc2=CC1=O` [6-Hexyl-7-hydroxy-3-[5-(2-methoxy-phenyl)-[1,3,4]oxadiazol-2-yl]-chromen-2-one] reads 8.48 µM; that for `CCCCCCC1=Cc2c/c(=C3/NN/C(=C4/C=CC=CC4=O)O3)c(=O)oc2=CC1=O` [(3E)-6-hexyl-3-[(5E)-5-(6-oxocyclohexa-2,4-dien-1-ylidene)-1,3,4-oxadiazolidin-2-ylidene]chromene-2,7-dione], 4.36 µM; that for `Cc1ccc(O)c(/N=C/C2=CC(Cc3ccccc3)C=C([N+](=O)[O-])C2=O)c1` (stereo unspecified) [(6E)-6-[[(5-methyl-2-oxidanyl-phenyl)amino]methylidene]-2-nitro-4-(phenylmethyl)cyclohexa-2,4-dien-1-one], 12.4 µM.
For the compound `Cc1ccc(C)c(SCC(=O)OCC(=O)C(C#N)c2nc3ccccc3[nH]2)c1` (stereo unspecified) [MLS000392255], the IC50 came out at 4.92 µM.
Under `Cc1cc(CN=Nc2nc(N)ncc2[N+](=O)[O-])c(C)n1-c1ccccc1F` [MLS000392273] stands 6.02 µM; under `COc1ccc(NS(=O)(=O)c2ccc(N=NC(C)c3ccncc3)c([N+](=O)[O-])c2)cc1` (stereo unspecified) [MLS000393523], 2.11 µM; under `C=CCN1C(=O)C(=NNC(=S)Nc2cccc(OC)c2)c2ccccc21` [SMR000132469], 1.76 µM.
The result for `CCOc1ccc(-c2csc(/C(C#N)=C/C3C=CC(=O)C([N+](=O)[O-])=C3)n2)cc1` (stereo unspecified) [SMR000237723] reads 2.58 µM; that for `CN1C(=O)C(=NNC(=S)Nc2ccccc2F)c2cc(S(=O)(=O)N3CCOCC3)ccc21` [SMR000314843], 9.77 µM.
On to `Cc1cc(N=NCc2ccccc2[N+](=O)[O-])nc(-n2nc(C)cc2C)n1` [SMR000426946], for which the IC50 was determined as 6.55 µM.
Under `COc1cc(CN=Nc2nc3c(c(=O)n(C)c(=O)n3C)n2Cc2ccccc2)ccc1OC(=O)c1ccco1` [[4-[[(7-benzyl-1,3-dimethyl-2,6-dioxopurin-8-yl)hydrazinylidene]methyl]-2-methoxyphenyl] furan-2-carboxylate] stands 5.98 µM.
